{
  "source": "patent US20090131327A1",
  "about": "“NOGO RECEPTOR FUNCTIONAL MOTIFS AND PEPTIDE MIMETICS RELATED THERETO AND METHODS OF USING THE SAME” (priority 2005, published 2009)",
  "key": {"myelin": {"system": "myelin", "assay": "Antagonism of the inhibitory activity of myelin (data not shown)", "type": "cell-based"}, "cerebellar neurons [1]": {"system": "cerebellar neurons", "assay": "Neurite outgrowth assay: antagonism of MAG-Fc-mediated inhibition of neurite outgrowth, neurons over 3T3 monolayers", "type": "cell-based, rat", "settings": "MAG-Fc 20 μg/ml; for antagonism of MAG-Fc inhibition of neurite outgrowth: peptide 100 μg/ml, ~23-27 hr, FIG. 2; for peptide concentration with maximal promotion of neurite outgrowth / peptide concentration with significant promotion of neurite outgrowth: FIG. 5; for antagonism of inhibitory activity of MAG-Fc: peptide 50 μg/ml (60 μM)"}, "cerebellar neurons [2]": {"system": "cerebellar neurons", "assay": "Neurite outgrowth assay: antagonism of MAG-Fc-mediated inhibition of neurite outgrowth, neurons over 3T3 monolayers", "type": "cell-based, rat", "settings": "for effectiveness in antagonizing MAG inhibition relative to NRL2: compared with parental peptide NRL2", "protocol": "(§1) Cerebellar neurons isolated from postnatal day 2/3 rat pups were cultured over monolayers of 3T3 cells (Doherty et al. (1991) Neuron 6(2):247-58) essentially as previously described (Williams et al. (1994) Neuron 13(3):583-94). Monolayers were established by seeding ˜80,000 cells into individual chambers of an eight-chamber tissue culture slide coated with poly-L-lysine and fibronectin. The cell lines, and monolayers, were maintained in Dulbecco's modified Eagle's medium supplemented with 10% fetal calf serum (FCS). Cocultures were established by removing the media from the monolayers and seeding ˜6000 dissociated cerebellar neurons into each well in SATO medium (modified from Doherty et al. (1990) Neuron 5(2):209-19; Dulbecco's modified Eagle's medium supplemented with 2% FBS, 33% bovine albumin, 0.62 μg/ml progesterone, 161 μg/ml putrescine, 4 μg/ml L-thyroxine, 0.387 μg/ml selenium, and 3.37 μg/ml tri-iodo-thyronine (components from Sigma-Aldrich, St. Louis, Mo.)). Monolayers were established for 24 hours prior to addition of the neurons and the cultures were maintained for ˜23-27 hr. Following careful fixation with 4% paraformaldehyde, the neurons were immunostained with a GAP-43 antibody, and the mean length of the longest neurite per cell was measured for ˜120-150 neurons, again as previously described (Williams et al. (1994) Neuron 13(3):583-94).\n(§2) Synthetic peptides were all obtained from a commercial supplier (Multiple Peptide Systems, San Diego, Calif.). All peptides were purified to the highest grade by reverse-phase HPLC and obtained at the highest level of purity (>97%). With all peptides, there was no indication of higher molecular weight species. Where peptide sequences are underlined, this denotes a peptide that has been cyclized via a disulfide bond between the given cysteine residues. All peptides were acetylated (e.g., denoted with “N—Ac—”) and amide blocked (e.g., denoted with “—NH2”). Recombinant MAG-Fc chimera was obtained from R&D Systems (Minneapolis, Minn.) and used at final concentrations ranging from 5-25 μg/ml. The monoclonal antibody to GT1b (clone GMR5) was obtained from Seikagaku America (Falmouth, Mass.) and was used at a final concentration of 20 μg/ml. All reagents were diluted into the coculture media and, in general, added to the cultures just prior to the plating of the neurons.\nMAG was the first inhibitory component of myelin to be identified based on its ability to inhibit neurite outgrowth from postnatal rat cerebellar neurons (Mukhopadhyay et al. (1994) Neuron 13(3):757-67). […] NgR1 function is required for MAG inhibition of neurite outgrowth (Domeniconi et al. (2002) Neuron 35(2):283-90; Liu et al. (2002) Science 297:1190-93). Consequently, in order to determine if the mimetic peptides could antagonize, (e.g., reverse, decrease, reduce, prevent, etc.) NgR1 function (e.g., reverse NgR1-ligand-mediated inhibition of axonal growth), the peptides were tested for their ability to antagonize MAG-mediated inhibition of axonal growth. […] The ability of the NRL peptides to antagonize MAG-mediated inhibition of axonal growth was tested in a number of independent experiments. […] In order to evaluate the efficacy of the NRL2 peptide, the ability of various concentrations of NRL2 to overcome the inhibitory activity of 25 μg/ml of the soluble MAG-Fc chimera was tested. Results obtained from at least three independent experiments have been pooled to generate FIG. 3."}, "cerebellar neurons [3]": {"system": "cerebellar neurons", "assay": "Neurite outgrowth assay: substance alone in coculture media, neurons over 3T3 monolayers", "type": "cell-based, rat", "settings": "without MAG-Fc; for effect on neurite outgrowth in control media: peptide alone", "protocol": "as §1, §2\nMAG was the first inhibitory component of myelin to be identified based on its ability to inhibit neurite outgrowth from postnatal rat cerebellar neurons (Mukhopadhyay et al. (1994) Neuron 13(3):757-67). […] NgR1 function is required for MAG inhibition of neurite outgrowth (Domeniconi et al. (2002) Neuron 35(2):283-90; Liu et al. (2002) Science 297:1190-93). […]"}, "cerebellar neurons [4]": {"system": "cerebellar neurons", "assay": "Neurite outgrowth assay: antagonism of inhibition by anti-GT1b antibody", "type": "cell-based, rat", "settings": "peptide 100 μg/ml; anti-GT1b up to 40 μg/ml; FIG. 4", "protocol": "Cerebellar neurons isolated from postnatal day 2/3 rat pups were cultured over monolayers of 3T3 cells (Doherty et al. (1991) Neuron 6(2):247-58) essentially as previously described (Williams et al. (1994) Neuron 13(3):583-94). Monolayers were established by seeding ˜80,000 cells into individual chambers of an eight-chamber tissue culture slide coated with poly-L-lysine and fibronectin. The cell lines, and monolayers, were maintained in Dulbecco's modified Eagle's medium supplemented with 10% fetal calf serum (FCS). Cocultures were established by removing the media from the monolayers and seeding ˜6000 dissociated cerebellar neurons into each well in SATO medium (modified from Doherty et al. (1990) Neuron 5(2):209-19; Dulbecco's modified Eagle's medium supplemented with 2% FBS, 33% bovine albumin, 0.62 μg/ml progesterone, 161 μg/ml putrescine, 4 μg/ml L-thyroxine, 0.387 μg/ml selenium, and 3.37 μg/ml tri-iodo-thyronine (components from Sigma-Aldrich, St. Louis, Mo.)). Monolayers were established for 24 hours prior to addition of the neurons and the cultures were maintained for ˜23-27 hr. Following careful fixation with 4% paraformaldehyde, the neurons were immunostained with a GAP-43 antibody, and the mean length of the longest neurite per cell was measured for ˜120-150 neurons, again as previously described (Williams et al. (1994) Neuron 13(3):583-94). […]"}},
  "note": "Values joined by “and” are separate entries in the source; they are usually repeats but may differ in a detail not shown here. Equal values may be shown once. “Also recorded” adds a separate entry of the source. Positions of bridges follow the written chain, without caps; N, C: chain ends.",
  "data": [
    {"substance": "Ac-CTDIKGKEC-NH2 (cysteine pairing not given here)", "values": [
      {"measurement": "antagonism of the inhibitory activity of myelin", "setting": "myelin", "result": "do not antagonize"}
    ]},
    {"substance": "N-Ac c[sGrfkq]-NH2 (XGXXXX; not fully specified; cyclised or stapled) [hriNRL2]", "values": [
      {"measurement": "reversal of MAG-mediated inhibition of neurite outgrowth", "setting": "cerebellar neurons [1]; increasing peptide concentrations, FIG. 6", "result": "reverse MAG-mediated inhibition of neurite outgrowth"}
    ]},
    {"substance": "N-Ac-CAGRDLKRC-NH2 (disulfide 1-9; SMILES CC(=O)N[C@H]1CSSC[C@@H](C(N)=O)NC(=O)[C@H](CCCNC(=N)N)NC(=O)[C@H](CCCCN)NC(=O)[C@H](CC(C)C)NC(=O)[C@H](CC(=O)O)NC(=O)[C@H](CCCNC(=N)N)NC(=O)CNC(=O)[C@H](C)NC1=O) [NRL4]", "values": [
      {"measurement": "antagonism of MAG-Fc inhibition of neurite outgrowth", "setting": "cerebellar neurons [1]", "result": "MAG-Fc also substantially inhibited neurite outgrowth"}
    ]},
    {"substance": "N-Ac-CKFRGSC-NH2 (disulfide 1-7; SMILES CC(=O)N[C@H]1CSSC[C@@H](C(N)=O)NC(=O)[C@H](CO)NC(=O)CNC(=O)[C@H](CCCNC(=N)N)NC(=O)[C@H](Cc2ccccc2)NC(=O)[C@H](CCCCN)NC1=O) [NRL2a]", "values": [
      {"measurement": "effectiveness in antagonizing MAG inhibition relative to NRL2", "setting": "cerebellar neurons [2]", "result": "as effective as NRL2"},
      {"measurement": "effectiveness in antagonizing MAG inhibition relative to NRL2", "setting": "cerebellar neurons [2]; listed as N-Ac-CKFRGSC-NH2", "result": "as effective as the longer parental peptide"},
      {"measurement": "peptide concentration with maximal promotion of neurite outgrowth", "setting": "cerebellar neurons [1]", "result": "50 μg/ml and 60 μM"},
      {"measurement": "peptide concentration with significant promotion of neurite outgrowth", "setting": "cerebellar neurons [1]", "result": "25 μg/ml and 30 μM"},
      {"measurement": "antagonism of inhibitory activity of MAG-Fc", "setting": "cerebellar neurons [1]", "result": "effectively antagonized"},
      {"measurement": "effect on neurite outgrowth in control media", "setting": "cerebellar neurons [3]", "result": "no effect"}
    ]},
    {"substance": "N-Ac-CLQKFRGSSC-NH2 (disulfide 1-10; SMILES CC(=O)N[C@H]1CSSC[C@@H](C(N)=O)NC(=O)[C@H](CO)NC(=O)[C@H](CO)NC(=O)CNC(=O)[C@H](CCCNC(=N)N)NC(=O)[C@H](Cc2ccccc2)NC(=O)[C@H](CCCCN)NC(=O)[C@H](CCC(N)=O)NC(=O)[C@H](CC(C)C)NC1=O) [NRL2]", "values": [
      {"measurement": "antagonism of inhibitory effects of anti-GT1b antibody", "setting": "cerebellar neurons [4]", "result": "reversed; also recorded: just as effective"},
      {"measurement": "activity as MAG antagonist (summary in discussion)", "setting": "cerebellar neurons [2]; four disulfide-constrained NgR1 loop peptides", "result": "effective MAG antagonist"},
      {"measurement": "antagonism of MAG-Fc inhibition of neurite outgrowth", "setting": "cerebellar neurons [1]", "result": "largely antagonized"},
      {"measurement": "effect on neurite outgrowth in control media", "setting": "cerebellar neurons [3]", "result": "no effect"},
      {"measurement": "effect on control neurite outgrowth", "setting": "cerebellar neurons [3]; tested at up to 200 μg/ml, FIG. 3", "result": "little effect"}
    ]},
    {"substance": "N-Ac-CQKFRGC-NH2 (disulfide 1-7; SMILES CC(=O)N[C@H]1CSSC[C@@H](C(N)=O)NC(=O)CNC(=O)[C@H](CCCNC(=N)N)NC(=O)[C@H](Cc2ccccc2)NC(=O)[C@H](CCCCN)NC(=O)[C@H](CCC(N)=O)NC1=O) [NRL2b]", "values": [
      {"measurement": "effectiveness in antagonizing MAG inhibition relative to NRL2", "setting": "cerebellar neurons [2]", "result": "as effective as NRL2"},
      {"measurement": "effectiveness in antagonizing MAG inhibition relative to NRL2", "setting": "cerebellar neurons [2]; listed as N-Ac-CQKFRGC-NH2", "result": "as effective as the longer parental peptide"},
      {"measurement": "peptide concentration with maximal promotion of neurite outgrowth", "setting": "cerebellar neurons [1]", "result": "50 μg/ml and 60 μM"},
      {"measurement": "peptide concentration with significant promotion of neurite outgrowth", "setting": "cerebellar neurons [1]", "result": "25 μg/ml and 30 μM"},
      {"measurement": "antagonism of inhibitory activity of MAG-Fc", "setting": "cerebellar neurons [1]", "result": "effectively antagonized"},
      {"measurement": "effect on neurite outgrowth in control media", "setting": "cerebellar neurons [3]", "result": "no effect"}
    ]},
    {"substance": "N-Ac-CSLPQRLAC-NH2 (disulfide 1-9; SMILES CC(=O)N[C@H]1CSSC[C@@H](C(N)=O)NC(=O)[C@H](C)NC(=O)[C@H](CC(C)C)NC(=O)[C@H](CCCNC(=N)N)NC(=O)[C@H](CCC(N)=O)NC(=O)[C@@H]2CCCN2C(=O)[C@H](CC(C)C)NC(=O)[C@H](CO)NC1=O) [NRL3]", "values": [
      {"measurement": "antagonism of MAG-Fc inhibition of neurite outgrowth", "setting": "cerebellar neurons [1]", "result": "MAG-Fc also substantially inhibited neurite outgrowth"}
    ]},
    {"substance": "N-Ac-CYNEPKVTC-NH2 (disulfide 1-9; SMILES CC(=O)N[C@H]1CSSC[C@@H](C(N)=O)NC(=O)[C@H]([C@@H](C)O)NC(=O)[C@H](C(C)C)NC(=O)[C@H](CCCCN)NC(=O)[C@@H]2CCCN2C(=O)[C@H](CCC(=O)O)NC(=O)[C@H](CC(N)=O)NC(=O)[C@H](Cc2ccc(O)cc2)NC1=O) [NRL1]", "values": [
      {"measurement": "antagonism of MAG-Fc inhibition of neurite outgrowth", "setting": "cerebellar neurons [1]", "result": "MAG-Fc also substantially inhibited neurite outgrowth"}
    ]},
    {"substance": "NGF: nerve growth factor", "values": [
      {"measurement": "antagonism of the inhibitory activity of myelin", "setting": "myelin", "result": "do not antagonize"}
    ]}
  ]
}
